Experimental data: the supplement of paper PMC11061612

Key:
[1] = test system: A3-KAW (B-Cell Non-Hodgkin's Lymphoma); assay: combination Emax (second highest fraction inhibited in the dose matrix, 72 h); higher = more inhibition; extreme values may be limits of the assay
In short: (§1)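 Cell lines in DMEM/F12 or RPMI with 10% FBS were plated in 1536-well plates, held 24 hours at 37°C, 5% CO2, then given two-drug dose matrices for 72 hours (DMSO typically 0.2%). Viability was read by CellTiter-Glo 2.0 luminescence and scaled as inhibition from 0 (vehicle wells) to 1 (blank wells). Combination Emax is the second-highest inhibition in the matrix; Bliss excess is observed combination effect minus expected EA + EB − EA·EB, EA and EB being single-agent effects.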

[2] = test system: TT (Thyroid Gland Carcinoma); assay: as above
In short: as §1

LN-405 (Glioblastoma) = assay: as above
In short: as §1

PA-1 (Ovarian Carcinoma) = assay: as above
In short: as §1

[3] = test system: PANC-10-05 (Pancreatic Carcinoma); assay: as above
In short: as §1

[4] = test system: BT-483 (Breast Carcinoma); assay: as above
In short: as §1

[5] = test system: NCI-H1666 (Lung Adenocarcinoma); assay: as above
In short: as §1

[6] = test system: BT-483 (Breast Carcinoma); assay: Bliss excess, mean over the matrix (fraction); higher = more synergy
In short: as §1
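Throughout, for Bliss excess, mean over the matrix: after 72 h of two-drug dosing.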

| SMILES | combination Emax [1] | combination Emax [2] | combination Emax (LN-405 (Glioblastoma)) | combination Emax (PA-1 (Ovarian Carcinoma)) | combination Emax [3] | combination Emax [4] | combination Emax [5] | Bliss excess [6] |
| --- | --- | --- | --- | --- | --- | --- | --- | --- |
| CN(C)CCCOc1ccc(-c2ccc3ncc4c(c3c2)n(C2CCOCC2)c(=O)n4C)cn1 [AZD0156] + O=C(c1cc(Cc2n[nH]c(=O)c3ccccc23)ccc1F)N1CCN(C(=O)C2CC2)CC1 [Olaparib] (first compound max 3 µM, partner max 3 µM) | 0.909 | 0.237 | 0.182 | 0.479 | 0.343 | 0.313 | 0.269 | -0.0118 |
| C=CCn1c(=O)c2cnc(Nc3ccc(N4CCN(C)CC4)cc3)nc2n1-c1cccc(C(C)(C)O)n1 [AZD1775] + C1CN(CCC1(C(=O)N[C@@H](CCO)C2=CC=C(C=C2)Cl)N)C3=NC=NC4=C3C=CN4 [Capivasertib] (first compound max 3 µM, partner max 3 µM) | 0.987 | 0.264 | 0.49 | 0.866 | 0.594 | 0.391 | 0.55 | -0.0416 |
| CC1(C)CCC(CN2CCN(c3ccc(C(=O)NS(=O)(=O)c4ccc(NCC5CCOCC5)c([N+](=O)[O-])c4)c(Oc4cnc5[nH]ccc5c4)c3)CC2)=C(c2ccc(Cl)cc2)C1 [Venetoclax] + C=CCn1c(=O)c2cnc(Nc3ccc(N4CCN(C)CC4)cc3)nc2n1-c1cccc(C(C)(C)O)n1 [AZD1775] (first compound max 1 µM, partner max 1 µM) | 0.937 | 0.673 | 0.326 | 0.847 | 0.486 |  | 0.343 |  |
| CC1(C)CCC(CN2CCN(c3ccc(C(=O)NS(=O)(=O)c4ccc(NCC5CCOCC5)c([N+](=O)[O-])c4)c(Oc4cnc5[nH]ccc5c4)c3)CC2)=C(c2ccc(Cl)cc2)C1 [Venetoclax] + CCN(CCO)CCCOc1ccc2c(Nc3cc(CC(=O)Nc4cccc(F)c4)[nH]n3)ncnc2c1 [AZD2811] (first compound max 1 µM, 7x7, partner max 1 µM) | 0.286 | 0.652 | 0.276 | 0.527 | 0.288 |  | 0.265 |  |
| CC1(C)CCC(CN2CCN(c3ccc(C(=O)NS(=O)(=O)c4ccc(NCC5CCOCC5)c([N+](=O)[O-])c4)c(Oc4cnc5[nH]ccc5c4)c3)CC2)=C(c2ccc(Cl)cc2)C1 [Venetoclax] + CN(C)CCCOc1ccc(-c2ccc3ncc4c(c3c2)n(C2CCOCC2)c(=O)n4C)cn1 [AZD0156] (first compound max 1 µM, 7x7, partner max 1 µM) | 0.288 | 0.594 | 0.306 | 0.3 | 0.229 |  | 0.225 |  |
| CC1(C)CCC(CN2CCN(c3ccc(C(=O)NS(=O)(=O)c4ccc(NCC5CCOCC5)c([N+](=O)[O-])c4)c(Oc4cnc5[nH]ccc5c4)c3)CC2)=C(c2ccc(Cl)cc2)C1 [Venetoclax] + COc1cc(Nc2ncc3c(n2)-c2ccc(Cl)cc2C(c2c(F)cccc2OC)=NC3)ccc1C(=O)O [Alisertib] (first compound max 1 µM, 7x7, partner max 10 µM) | 0.759 | 0.573 | 0.513 | 0.927 | 0.302 |  | 0.501 |  |
| CC1(C)CCC(CN2CCN(c3ccc(C(=O)NS(=O)(=O)c4ccc(NCC5CCOCC5)c([N+](=O)[O-])c4)c(Oc4cnc5[nH]ccc5c4)c3)CC2)=C(c2ccc(Cl)cc2)C1 [Venetoclax] + C[C@@H]1COCCN1C2=NC(=NC(=C2)C3(CC3)[S@](=N)(=O)C)C4=C5C=CNC5=NC=C4 [AZD6738] (first compound max 1 µM, 7x7, partner max 10 µM) | 1 | 0.702 | 0.483 | 0.827 | 0.53 |  | 0.424 |  |
| CC1(C)CCC(CN2CCN(c3ccc(C(=O)NS(=O)(=O)c4ccc(NCC5CCOCC5)c([N+](=O)[O-])c4)c(Oc4cnc5[nH]ccc5c4)c3)CC2)=C(c2ccc(Cl)cc2)C1 [Venetoclax] + C[C@@H](Nc1cc(F)cc(F)c1)c1cc(C(=O)N(C)C)cc2c(=O)cc(N3CCOCC3)oc12 [AZD8186] (first compound max 1 µM, 7x7, partner max 3 µM) | 0.302 | 0.531 | 0.335 | 0.682 | 0.244 |  | 0.339 |  |
| CC1(C)CCC(CN2CCN(c3ccc(C(=O)NS(=O)(=O)c4ccc(NCC5CCOCC5)c([N+](=O)[O-])c4)c(Oc4cnc5[nH]ccc5c4)c3)CC2)=C(c2ccc(Cl)cc2)C1 [Venetoclax] + Cc1cc2ncnn2cc1Nc1ncc2c(n1)n(C1CCOCC1)c(=O)n2C [AZD7648] (first compound max 1 µM, 7x7, partner max 10 µM) | 0.417 | 0.601 | 0.373 | 0.473 | 0.332 |  | 0.232 |  |
| CC1(C)CCC(CN2CCN(c3ccc(C(=O)NS(=O)(=O)c4ccc(NCC5CCOCC5)c([N+](=O)[O-])c4)c(Oc4cnc5[nH]ccc5c4)c3)CC2)=C(c2ccc(Cl)cc2)C1 [Venetoclax] + Cn1cnc2c(F)c(Nc3ccc(Br)cc3Cl)c(C(=O)NOCCO)cc21 [Selumetinib] (first compound max 1 µM, 7x7, partner max 3 µM) | 0.216 | 0.436 | 0.182 | 0.318 | 0.398 |  | 0.575 |  |
